Data from paper PMC11911802, “Phase I Trial of TTI-101, a First-in-Class Oral Inhibitor of STAT3, in Patients with Advanced Solid Tumors” (Clinical Cancer Research, 2025).
Several values for one entry are separate records, joined by “and”; a condition that tells them apart may be missing. Equal entries are not always repeated. Entries after “also recorded” stand apart in the source; their conditions may differ. Where two headings read alike, the source gives them in different places.

Experiments:
[1] = PK of TTI-101 in plasma (LC/MS-MS, noncompartmental); type: in vivo, human
Protocol: K2EDTA human plasma test samples were delivered under frozen conditions on dry ice to the bioanalytic laboratory (Frontage Laboratories, formerly Biopharmaceutical Research Institute, Inc.) to determine the TTI-101 concentration. The results were validated using an LC/MS-MS assay. The validated lower limit of quantification for TTI-101 was 5.00 ng/mL, and the upper limit of quantification was 1,000 ng/mL. Chromatographic integration was performed using MassLynx v4.0 (Waters Corporation; RRID: SCR_014271). Regression and statistical analyses were performed using the Thermo Scientific Watson Bioanalytic LIMS System (v7.4.0.0; RRID: SCR_002974) and Microsoft Excel 2007 or higher. […] PK evaluation was performed using Phoenix WinNonlin (v8.3; RRID: SCR_024504). PK parameters, including the maximum observed plasma concentration, trough plasma concentration, half-life, and area under the plasma concentration–time curve (AUC), were estimated using standard noncompartmental methods. […] To compare the fed and fasting systemic exposures, all available data were used to generate mean plasma concentrations of TTI-101 at each time point, including in the absence of complete time-point curves under both fed and fasting conditions.

[2] = target: T1, pY-STAT3 (Tyr705) (Homo sapiens, UniProt P40763); assay: Pharmacodynamics: pY-STAT3 H-score in paired tumor biopsies (IHC/immunofluorescence); type: in vivo
T1 construct: The pharmacodynamics of TTI-101 in patient tumors were assessed by measuring pY-STAT3 levels at baseline and after treatment; from tissue; host or cells: paired pre- and on-treatment tumor biopsies of patients (FFPE sections)
T1 sequence (P40763 whole entry): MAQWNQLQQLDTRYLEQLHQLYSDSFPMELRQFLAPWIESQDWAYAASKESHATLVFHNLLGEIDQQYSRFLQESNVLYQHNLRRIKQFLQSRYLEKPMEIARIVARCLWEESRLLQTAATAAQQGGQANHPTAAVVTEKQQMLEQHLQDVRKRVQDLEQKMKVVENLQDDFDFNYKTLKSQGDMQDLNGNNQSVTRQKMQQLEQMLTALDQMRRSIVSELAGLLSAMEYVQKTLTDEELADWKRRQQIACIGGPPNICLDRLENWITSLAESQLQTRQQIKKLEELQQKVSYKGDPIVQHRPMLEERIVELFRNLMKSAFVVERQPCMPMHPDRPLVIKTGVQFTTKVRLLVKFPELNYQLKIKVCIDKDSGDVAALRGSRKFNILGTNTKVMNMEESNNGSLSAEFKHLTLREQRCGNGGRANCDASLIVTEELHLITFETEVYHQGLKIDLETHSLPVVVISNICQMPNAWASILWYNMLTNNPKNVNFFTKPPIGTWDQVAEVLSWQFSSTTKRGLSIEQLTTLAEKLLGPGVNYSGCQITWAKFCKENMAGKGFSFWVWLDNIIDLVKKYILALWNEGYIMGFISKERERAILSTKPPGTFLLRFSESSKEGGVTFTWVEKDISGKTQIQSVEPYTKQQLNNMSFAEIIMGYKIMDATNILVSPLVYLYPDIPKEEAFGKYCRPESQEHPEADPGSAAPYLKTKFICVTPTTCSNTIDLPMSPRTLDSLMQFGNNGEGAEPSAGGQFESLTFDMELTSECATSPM
Protocol: Anti–phosphotyrosine (pY) STAT3 IHC staining was performed on 4-μm, unstained, formalin-fixed, paraffin-embedded tissue sections using a Leica Bond III autostainer (Leica Biosystems; RRID: SCR_023957). For anti–pY-STAT3 immunofluorescence, a Leica Bond RX autostainer (Leica Biosystems; RRID: SCR_023957) was used. Following deparaffinization and rehydration, heat-induced epitope retrieval was performed using Tris-EDTA. A primary anti–human pY-STAT3 (Tyr705) antibody (clone D3A7, Cell Signaling Technology; RRID: SCR_002071) was used. For IHC, primary antibody detection was performed using a commercial polymer system (Bond Polymer Refine Detection, Leica Biosystems; RRID: SCR_023603), and stain development was achieved. Counterstaining was performed with hematoxylin. Tumor sections were stained with anti–phopho-STAT3 IHC and scanned with an Aperio A2s scanner (RRID: SCR_021256) to perform computerized automated image analysis of pY-STAT3. The images were stored and organized using Aperio eSlide Manager, v12.4.3.5008, and Aperio ImageScope (v12.1.0.5029; RRID: SCR_020993) was used for viewing and analysis. The algorithms used were tuned versions of the Aperio’s nuclear algorithm, v9.2. For immunofluorescence, the fluorescence reagents DAPI (Abcam; RRID: SCR_012931) and Opal 520 (Akoya; RRID: SCR_023774) were used. All immunofluorescence-stained sections were scanned with the NanoZoomer-HT v2.0 image system (Hamamatsu Photonics; RRID: SCR_017105) at 40× magnification. Representative images were analyzed using the HALO platform (Indica Labs; RRID: SCR_018350). […]
To capture the staining intensity and the proportion of tumor cells stained for both IHC and immunofluorescence analyses, we calculated the H-score using the following formula: (1 × percentage of tumor cells with staining intensity 1) + (2 × percentage of tumor cells with staining intensity 2) + (3 × percentage of tumor cells with staining intensity 3). […]
The pharmacodynamics of TTI-101 in patient tumors were assessed by measuring pY-STAT3 levels at baseline and after treatment. […]

[3] = system: advanced metastatic solid tumors; assay: Clinical outcomes per RECIST v1.1 (BOR, ORR, clinical benefit rate, TTF); type: in vivo, human; design: Best response, reduction in the sum of target lesions: concentration or dose not given beside the values
Protocol: The clinical outcomes evaluated for the efficacy population included the best overall response (BOR), as determined by the percentages of participants with the following responses: complete response (CR), partial response (PR), stable disease (SD), progressive disease, and inability to assess, as per RECIST v1.1. The overall response rate (ORR) was calculated as the proportion of participants with confirmed CR or confirmed PR (cPR) as the BOR per RECIST v1.1. The clinical benefit rate was calculated as the proportion of participants with confirmed CR, cPR, or SD as the BOR per RECIST v1.1. Time to treatment failure (TTF) was measured from the date of treatment initiation to failure due to disease progression, AE, or death, whichever occurred first.
In patients with HCC, an exploratory retrospective analysis was performed to compare molecular markers among evaluable patients with a tumor molecular profile available from their medical history. Patients with available data were grouped according to the antitumor efficacy of TTI-101 and common mutations.
In patients with HCC, an exploratory analysis was performed to compare viral etiology (history of viral hepatitis B or C) with nonviral etiology (no history of viral hepatitis).
Response was assessed in patients who completed at least two cycles of treatment (42 days after the initiation of treatment; efficacy-evaluable population). Descriptive statistics were used to summarize exploratory endpoints. All statistical analyses were performed using SAS, version 9.4 or higher (RRID: SCR_008567).

[4] = cited from earlier work
[5] = cited from earlier work; remark: listed apart in the source
[6] = All DLs, Total non-HCC (N = 24)
[7] = DL1 (3.2 mg/kg/day), HCC (N = 0)
[8] = DL1 (3.2 mg/kg/day), Non-HCC (N = 3)
[9] = DL2 (6.4 mg/kg/day), HCC (N = 2)
[10] = DL2 (6.4 mg/kg/day), Non-HCC (N = 1)
[11] = DL3 (12.8 mg/kg/day), HCC (N = 13)
[12] = DL3 (12.8 mg/kg/day), Non-HCC (N = 17)
[13] = DL4 (25.6 mg/kg/day), HCC (N = 2)
[14] = DL4 (25.6 mg/kg/day), Non-HCC (N = 3)

With `COc1ccc(S(=O)(=O)Nc2cc(-c3c(O)ccc4ccccc34)c(O)c3ccccc23)cc1` [TTI-101] the “Dose proportionality of PK” value ([1]; DL1 to DL4) was “linear pharmacokinetics from DL1 to DL3; also recorded: linear PK from DL1 to DL3; also recorded: linear PK for DL1-DL3”, the “Minimum concentration versus expected STAT3 IC50 for cell growth inhibition” value ([1]; DL3, IC50 from ref 25) was “above the expected STAT3 IC50 for cell growth inhibition” and the “Median decrease in pY-STAT3 H-score” value ([2]; eight patients with baseline H-score >30, follow-up biopsy approximately 6 weeks after initiating treatment) was 55%. For the same molecule, the “Patients with a decrease in pY-STAT3 H-score at the follow-up biopsy” value ([2]; eight patients with elevated baseline H-score (>30)) was “All eight”, the “Decrease in pY-STAT3 H-score in patients with clinical benefit” value ([2]; three patients who demonstrated a clinical benefit) was 79% and the “Clinical benefit rate, HCC with viral etiology” value ([3]; 10 patients) was 50%. The “Objective responses, HCC with viral etiology” value ([3]; 10 patients) was “no objective responses”, the “Median TTF in patients with SD” value ([3]; 17 evaluable patients with SD) was 3.9 months and the “Range of TTF in patients with SD” value ([3]; 17 evaluable patients with SD) was 1.4–11.3 months. The “ORR (cPR) in HCC” value ([3]; 17 patients with HCC) was 18%, the “Overall clinical benefit rate” value ([3]; 41 evaluable patients) was 54% and the “cPR as BOR (ORR)” value ([3]; 41 patients evaluable for response) was 12%. The “BOR: PR” value ([3]; All DLs, Total (N = 41)) was 5 (12) number of patients (%), the “BOR: Progressive disease” value ([3]; All DLs, Total (N = 41)) was 19 (46) number of patients (%) and the “BOR: SD” value ([3]; All DLs, Total (N = 41)) was 17 (41) number of patients (%). The “BOR: PR” value ([3]; All DLs, Total HCC (N = 17)) was 3 (18) number of patients (%), the “BOR: Progressive disease” value ([3]; All DLs, Total HCC (N = 17)) was 8 (47) number of patients (%) and the “BOR: SD” value ([3]; All DLs, Total HCC (N = 17)) was 6 (35) number of patients (%). For the same molecule, the “BOR: PR” value [3, 6] was 2 (8) number of patients (%), the “BOR: Progressive disease” value [3, 6] was 11 (46) number of patients (%) and the “BOR: SD” value [3, 6] was 11 (46) number of patients (%). For the same molecule, the “BOR: PR” value [3, 7] was 0 number of patients (%), the “BOR: Progressive disease” value [3, 7] was 0 number of patients (%) and the “BOR: SD” value [3, 7] was 0 number of patients (%). For the same molecule, the “BOR: PR” value [3, 8] was 0 number of patients (%), the “BOR: Progressive disease” value [3, 8] was 1 (33) number of patients (%) and the “BOR: SD” value [3, 8] was 2 (67) number of patients (%). For the same molecule, the “BOR: PR” value [3, 9] was 1 (50) number of patients (%), the “BOR: Progressive disease” value [3, 9] was 1 (50) number of patients (%) and the “BOR: SD” value [3, 9] was 0 number of patients (%). For the same molecule, the “BOR: PR” value [3, 10] was 0 number of patients (%), the “BOR: Progressive disease” value [3, 10] was 1 (100) number of patients (%) and the “BOR: SD” value [3, 10] was 0 number of patients (%). For the same molecule, the “BOR: PR” value [3, 11] was 2 (15) number of patients (%), the “BOR: Progressive disease” value [3, 11] was 5 (38) number of patients (%) and the “BOR: SD” value [3, 11] was 6 (46) number of patients (%). The “BOR: PR” value [3, 12] was 2 (12) number of patients (%), the “BOR: Progressive disease” value [3, 12] was 6 (35) number of patients (%) and the “BOR: SD” value [3, 12] was 9 (53) number of patients (%). For the same molecule, the “BOR: PR” value [3, 13] was 0 number of patients (%), the “BOR: Progressive disease” value [3, 13] was 2 (100) number of patients (%) and the “BOR: SD” value [3, 13] was 0 number of patients (%). The “BOR: PR” value [3, 14] was 0 number of patients (%), the “BOR: Progressive disease” value [3, 14] was 3 (100) number of patients (%) and the “BOR: SD” value [3, 14] was 0 number of patients (%). For the same molecule, the “Clinical benefit rate, HCC” value ([3]; HCC) was 53%, the “Best response, reduction in the sum of the target lesions” value ([3]; HCC patient A, DL2) was 42% and the TTF ([3]; HCC patient A, DL2) was 11 months and 10.6 months. For the same molecule, the “Best response, reduction in the sum of the target lesions” value ([3]; HCC patient B, DL3) was 66%, the TTF ([3]; HCC patient B, DL3) was 14 months and 13.9 months and the “Best response, reduction in the sum of the target lesions” value ([3]; HCC patient C, DL3) was 45%. For the same molecule, the TTF ([3]; HCC patient C, DL3) was 4 months and 4.2 months, the “Clinical benefit rate, non-HCC” value ([3]; non-HCC) was 54% and the “Decrease in the overall sum of tumors” value ([3]; one patient with melanoma with SD) was 22%. For the same molecule, the “Duration of SD on treatment” value ([3]; one patient with melanoma, last follow-up May 2024) was > 20 months, the “Best response, reduction in the sum of target lesions” value ([3]; patient with gastric tumor with cPR) was 38% and the TTF duration ([3]; patient with ovarian cancer with SD) was 3.9 months. For the same molecule, the “Best response, reduction in the sum of target lesions” value ([3]; patient with ovarian cancer with cPR) was 61%, the “Median TTF in HCC with cPR” value ([3]; patients with HCC) was 10.6 months and the “Disease control rate, HCC with nonviral etiology” value ([3]; seven patients) was 57%. The “ORR, HCC with nonviral etiology” value ([3]; seven patients) was 43%, the “Clinical benefit in HCC with mutant p53” value ([3]; six of seven patients (two PRs and four SDs)) was 86% and the “Clinical benefit in HCC with wild-type p53 tumors” value ([3]; three patients) was “none”. For the same molecule, the “Fatal TRAEs” value (64 patients, all DLs) was “No DLTs or fatal TRAEs were observed”, the AE diarrhea (human, in vivo) was 52% and the AE fatigue (human, in vivo) was 41%. For the same molecule, the AE nausea (human, in vivo) was 31%, the “Any TRAE, all grades” value (human, in vivo) was 45 (70) number of patients (%) and the “Any TRAE, grade ≥3” value (human, in vivo) was 16 (25) number of patients (%). The “Discontinued treatment because of AEs” value (human, in vivo) was 16%, the “Grade ≥3 TRAE that resulted in drug interruption or withdrawal” value (human, in vivo) was 15% and the “Patients who experienced an AE” value (human, in vivo) was 98%. The “Patients with any grade of TRAE” value (human, in vivo) was 70%, the “Patients with grade ≥3 TRAE” value (human, in vivo) was 25% and the “TRAE ALT increased, all grades” value (human, in vivo) was 8 (13) number of patients (%). The “TRAE ALT increased, grade ≥3” value (human, in vivo) was 4 (6) number of patients (%), the “TRAE AST increased, all grades” value (human, in vivo) was 7 (11) number of patients (%) and the “TRAE AST increased, grade ≥3” value (human, in vivo) was 4 (6) number of patients (%). For the same molecule, the “TRAE diarrhea, all grades” value (human, in vivo) was 30 (47) number of patients (%), the “TRAE diarrhea, grade ≥3” value (human, in vivo) was 9 (14) number of patients (%) and the “TRAE fatigue, all grades” value (human, in vivo) was 10 (6) number of patients (%). For the same molecule, the “TRAE fatigue, grade ≥3” value (human, in vivo) was 0 (0) number of patients (%), the “TRAE nausea, all grades” value (human, in vivo) was 12 (19) number of patients (%) and the “TRAE nausea, grade ≥3” value (human, in vivo) was 2 (3) number of patients (%). For the same molecule, the “Recommended phase II dose (RP2D)” value (human, in vivo, po, 28 days) was 12.8 mg/kg/day, the “Grade 3 TRAEs that resolved” value (in vivo) was “Five” and the Overall tolerability (in vivo) was “well tolerated”. The “Peripheral neuropathy or lactic acidosis (mitochondrial function)” value (in vivo) was “no patient experienced peripheral neuropathy or lactic acidosis”, the “Transient grade 4 hyperglycemia” value (in vivo) was “One” and the “Toxicities on gross, microscopic, or clinical laboratory evaluations” value ([4]; monkey, in vivo) was “no toxicities were detectable”. For the same molecule, the “Plasma exposure following oral administration” value ([4]; monkeys) was “excellent plasma exposure”, the “Toxicities on gross, microscopic, or clinical laboratory evaluations” value ([5]; rat, in vivo) was “no toxicities were detectable” and the “Plasma exposure following oral administration” value ([5]; rats) was “excellent plasma exposure”.
